In US20040009195A1, “Modified sialic acid vaccines” (priority 2003, published 2004):

Tested on: SK-Mel-28 human melanoma cells
Experiment: Expression of modified GD3 after incubation with modified precursors (flow cytometry, CE-MS)
Format: cell-based
Details: 1 mg/ml precursor concentration; in agreement with flow cytometry
Description: SK-Mel-28 human melanoma cells normally expressing GD3 were incubated with modified sialic acid precursors. The modified sialic acid precursors used were N-acylated Mannosamines(“ManNAc”), including: N-propionyl mannosamine (“ManNPr”), N-butyril mannosamine (“ManNBu”), and N-benzoyl mannosamine (“ManNBz”).
The incorporation and metabolism of the surface GD3 antigen were also investigated. […] Modified GD3 on SK-Mel-28 cells in vitro was still found 10 days after removal of precursors from the growth medium, when two populations of antigens, unmodified and modified GD3 were detected by mAb R24 and respective antiserum.
The relative quantity of modified and unmodified GD3 expressed on the SK-Mel-28 was analysed by capillary electrophoresis-mass spectroscopy (“CE-MS”). The glycolipids extracted from cells grown in various concentrations of ManNBu were separated by capillary electrophoresis and negative charged glycolipids were detected. GD3 was the dominant ganglioside found in SK-Mel-28 cells. When ManNBu was added to the medium, the modified GD3 was biosynthesized and expressed.

CCCC(=O)N[C@@H]1C(O)O[C@H](CO)[C@@H](O)[C@@H]1O (stereo partly shown) [ManNBu, N-butyril mannosamine]
Relative expression of modified GD3 by CE-MS: well expressed
